The source of these data is patent publication US10821098B2, “Treatment using dantrolene” (Lyotropic Therapeutics, Inc., priority 2001, dated 2020).

Structures are written as SMILES.

One data set concerns Malignant Hyperthermia. Conditions: in vivo; cited from earlier work.
The subject of data set [1] is rats subjected to 60 min of CPB. Conditions: Ma et al.; cited from earlier work.
The test system of the next data set is neuronal cells. Conditions: cited from earlier work.
Data set [2] concerns rats subjected to 60 min of CPB. Kind of data set: recovery model of cardiopulmonary bypass (CPB) in the rat. In kind it is in vivo.
Method: For example, three groups of rats may be subjected to 60 min of normothermic (37.5 degrees C.) nonpulsatile cardiopulmonary bypass (CPB) using a roller pump and a membrane oxygenator. Group 1 rats (n=10) receive no treatment. Group 2 rats (n=10) are pretreated with low volume dantrolene IV, 2.5 mg/kg, and Group 3 rats (n=10) are pretreated with low volume dantrolene IV, 5.0 mg/kg. A fourth group, (Group 4) serve as sham operated controls (n=10). Neurologic outcome is assessed on days 1, 3, and 12 after CPB using standardized functional testing. Neurocognitive outcome, defined as the time (or latency) to finding a submerged platform in a Morris water maze (an indicator of visual-spatial learning and memory), is evaluated daily from post-CPB days 3-12. […]
The test system of a further data set is patients. Briefly: neurocognitive testing of patients undergoing coronary artery re-vascularization during cardiopulmonary bypass. Type of data set: in vivo, humans. Conditions: 1.0 mg/kg of 5% colloidal dantrolene; 24 hours and six weeks post-op.
The nature of a further data set: dissolution. In kind it is physicochemical.
In data set [3] the test system is apoptotic nuclei in the cortex of rats given 5 mg/kg kainic acid. Conditions: quotient A/B as defined in the patent.
Method: In the context of this patent, we define “therapeutic index” of a therapeutic drug (or mixture) to be the quotient A/B, where A and B are defined as follows: A is the LD50 (dose yielding 50% lethality) of the drug when given intraperitoneally to rats; and B is the dose of the drug that when given i.p. yields 50% reduction of apoptotic nuclei in the cortex of rats given 5 mg/kg kainic acid, according to the protocol described by Popescu et al. in [J. Cell.
The next data set concerns rats. The note with it: intraperitoneally to rats; cited from earlier work.
In data set [4] the test system is apoptotic nuclei in the cortex of rats given 5 mg/kg kainic acid. Conditions: cited from earlier work.
The conditions of data set [5]: doses as high as 7.5 mg/kg i.v.; cited from earlier work.
In the next data set the test system is cell culture. Conditions: cited from earlier work.
A further data set can be described thus: solubility in water. In kind it is physicochemical.

Method for patients: Prior to surgery, each patient would be given a battery of nine standard tests designed to measure cognitive function in four broad categories; attention and concentration; verbal memory; abstraction and visual orientation; and figure (numbers) memory. Patients would again administered the same tests 24 hours and six weeks post-operatively. Each assessment would be performed by the same investigator who would be blinded to the patient's study group assignment. At the time of the operation, each patient would be induced of general anesthesia according to a protocol utilizing a modified cardiac/narcotic technique. All agents would be administered on a weight based dose (mg/kg) whenever possible. Volatile anesthetic agents would be administered and regulated by the anesthesiologist via the endotracheal tube to maintain adequate blood and pulse pressures both pre and post bypass, and by the perfusionist during bypass to maintain pressures suitable for adequate tissue perfusion. A standardized protocol by which the operation is to be performed would be designed and applied to each patient enrolled in this study. […]

For the compound `O=C1CN(/N=C/c2ncc(-c3ccc(Br)cc3)o2)C(=O)N1` [azumolene], the “benefit in the treatment of Malignant Hyperthermia (MH)” value with Malignant Hyperthermia is reported as “limited benefit”.

As to `[Xe]` [xenon], the “neuroprotection in the rat CPB model” value in [1] is listed as “protective”.

For `N#Cc1cc2[nH]c(=O)c(=O)[nH]c2cc1[N+](=O)[O-]` [CNQX], in the data set on neuronal cells, the “prevention of kainic-induced neurological damage” value was “prevented”.

As to `O=C1CN(/N=C/c2ccc(-c3ccc([N+](=O)[O-])cc3)o2)C(O)=N1` [dantrolene], the “attenuation of CPB-induced neurologic and neurocognitive dysfunction” value in data set [2] (10.0 mg/kg IV 15 min prior to CPB) is “comparable to xenon”. The “neurologic and neurocognitive outcome after CPB” value in data set [2] (pretreatment IV at both 2.5 mg/kg and 5.0 mg/kg, days 1-12) was “attenuates CPB associated neurologic and neurocognitive impairment”. Further, in the data set on patients, the “CPB-induced neurologic and neurocognitive impairment in man” value was “attenuates CPB-induced neurologic and neurocognitive impairment in man”. The “dissolution compared with the sodium salt” value in the data set “dissolution” (listed as Dantrolene free acid) was “slower and less reliable”. In the data set “dissolution” (listed as free acid), the “dissolution compared with the sodium salt” value is “significantly slower and more problematic than that of dantrolene sodium”. The “therapeutic index (LD50 / dose for 50% reduction of apoptotic nuclei)” value in [3] was determined as 78. For the same compound, the “LD50 (dose yielding 50% lethality)” value with rats is recorded as 780 mg/kg. For the same compound, the “dose yielding 50% reduction of apoptotic nuclei in the cortex” value in data set [4] (i.p., rats given 5 mg/kg kainic acid) is on record as 10 mg/kg. Also, the “kainic acid-mediated apoptosis mechanism” value in data set [4] (rat, in vivo) is “inhibits”. The cardiopulmonary depression result in data set [5] is reported as “does not cause cardiopulmonary depression”. In the data set on cell culture, the “toxicity induced by NMDA” value was “inhibits”, the “toxicity induced by glutamate” value is listed as “inhibits” and the “toxicity of quisqualate (QA)” value is given as “inhibited”.

As for `O=C1CN(/N=C/c2ccc(-c3ccc([N+](=O)[O-])cc3)o2)C(O)=N1` [dantrolene sodium], in the data set “solubility in water”, the solubility is less than 400 µg/mL.

One may read the solubility as the concentration that dissolves in the medium under given conditions. The low end stands for little dissolved substance, the high end for much dissolved substance.
